{"source": "paper PMC8632988", "about": "“Inhibition of SYK and cSrc kinases can protect bone and cartilage in preclinical models of osteoarthritis and rheumatoid arthritis” (Scientific Reports, 2021)", "assay": "Pharmacokinetics after single oral administration to rats", "type": "in vivo, rat", "settings": "male Wistar rats; for AUCINF / AUClast / Cmax / Terminal t1/2 / concentration at 0.25 h / concentration at 0.5 h / concentration at 1 h / concentration at 2 h / concentration at 4 h / concentration at 8 h / concentration at 24 h / concentration at 48 h: plasma; for concentration at 0.25 h / concentration at 0.5 h / concentration at 1 h / concentration at 2 h / concentration at 4 h / concentration at 8 h / concentration at 24 h / concentration at 48 h: male, Wistar, rat, oral", "description": "Experiments were performed at ChemPartner, Shanghai, China and approved by Institutional Ethics Committee (IEC) of ChemPartner. Male Wistar 10–12 weeks old rats with body weights of 185–220 g and male New Zealand rabbits with body weights of 2.0–2.3 kg were purchased from Shanghai SLAC Laboratory Animal Co., Ltd. MT-SYK-03 was administered to the three groups of rats (six rats per group) via oral gavage at 10 mL/kg concentration, and in rabbits 5 mL/kg concentration. Blood samples were kept on ice and centrifuged (2000 g, 4 ℃, 5 min) within 15 min post sampling.", "key": {"[1]": {"settings": "Table S6, 100 mg/kg PO, individual Rat#1-6"}, "[2]": {"settings": "Table S7, 100 mg/kg PO, individual Rat#7-12"}, "[3]": {"settings": "Table S8, 200 mg/kg PO, individual Rat#13-18"}}, "note": "Several values for one entry are separate records, joined by “and”; a condition that tells them apart may be missing. Identical values can stand only once. Like-named read-outs stand apart in the source and are kept apart here.", "data": [{"smiles": "COc1cc(Nc2ncnc(Nc3cc4c(cn3)NC(=O)C(C)(C)O4)n2)cc(OC)c1OC", "note": "[MT-SYK-03]", "values": [{"measurement": "Plasma concentration", "setting": "Table S6, 100 mg/kg PO, 0.25 h, individual Rat#1-6", "result": "257 ng/mL and 127 ng/mL and 313 ng/mL and 251 ng/mL and 240 ng/mL and 283 ng/mL"}, {"measurement": "Plasma concentration", "setting": "Table S6, 100 mg/kg PO, 0.5 h, individual Rat#1-6", "result": "331 ng/mL and 166 ng/mL and 419 ng/mL and 280 ng/mL and 345 ng/mL and 375 ng/mL"}, {"measurement": "Plasma concentration", "setting": "Table S6, 100 mg/kg PO, 1 h, individual Rat#1-6", "result": "470 ng/mL and 220 ng/mL and 487 ng/mL and 367 ng/mL and 392 ng/mL and 483 ng/mL"}, {"measurement": "Plasma concentration", "setting": "Table S6, 100 mg/kg PO, 2 h, individual Rat#1-6", "result": "529 ng/mL and 209 ng/mL and 501 ng/mL and 372 ng/mL and 256 ng/mL and 359 ng/mL"}, {"measurement": "Plasma concentration", "setting": "Table S6, 100 mg/kg PO, 4 h, individual Rat#1-6", "result": "196 ng/mL and 78.0 ng/mL and 171 ng/mL and 170 ng/mL and 226 ng/mL and 206 ng/mL"}, {"measurement": "Plasma concentration", "setting": "Table S6, 100 mg/kg PO, 8 h, individual Rat#1-6", "result": "47.2 ng/mL and 31.2 ng/mL and 92.6 ng/mL and 41.6 ng/mL and 88.8 ng/mL and 43.5 ng/mL"}, {"measurement": "Plasma concentration", "setting": "Table S6, 100 mg/kg PO, 24 h, individual Rat#1-6", "result": "0.818 ng/mL and BQL (2×) and 17.7 ng/mL and 1.57 ng/mL and 16.5 ng/mL"}, {"measurement": "Plasma concentration", "setting": "Table S6, 100 mg/kg PO, 48 h, individual Rat#1-6", "result": "BQL (4×) and 1.55 ng/mL"}, {"measurement": "AUCINF", "setting": "[1]", "result": "2434 ng·h/mL and 971 ng·h/mL and 3948 ng·h/mL and 2253 ng·h/mL and 2452 ng·h/mL and 2451 ng·h/mL"}, {"measurement": "AUClast", "setting": "[1]", "result": "2423 ng·h/mL and 869 ng·h/mL and 3933 ng·h/mL and 2069 ng·h/mL and 2446 ng·h/mL and 2297 ng·h/mL"}, {"measurement": "Cmax", "setting": "[1]", "result": "529 ng/mL and 220 ng/mL and 501 ng/mL and 372 ng/mL and 392 ng/mL and 483 ng/mL"}, {"measurement": "Terminal t1/2", "setting": "[1]", "result": "7.83 h and 2.28 h and 6.60 h and 7.22 h and 2.78 h and 6.45 h"}, {"measurement": "Plasma concentration", "setting": "Table S7, 100 mg/kg PO, 8 h, individual Rat#7-12", "result": "87.7 ng/mL and 152 ng/mL and 64.3 ng/mL and 178 ng/mL and 89.2 ng/mL and 82.6 ng/mL"}, {"measurement": "Plasma concentration", "setting": "Table S7, 100 mg/kg PO, 24 h, individual Rat#7-12", "result": "32.8 ng/mL and 4.94 ng/mL and 6.04 ng/mL and 1.11 ng/mL and 1.56 ng/mL"}, {"measurement": "Plasma concentration", "setting": "Table S7, 100 mg/kg PO, 48 h, individual Rat#7-12", "result": "BQL"}, {"measurement": "AUCINF", "setting": "[2]", "result": "4850 ng·h/mL and 3276 ng·h/mL and 4883 ng·h/mL and 4456 ng·h/mL and 3930 ng·h/mL"}, {"measurement": "AUClast", "setting": "[2]", "result": "4843 ng·h/mL and 3238 ng·h/mL and 4878 ng·h/mL and 4452 ng·h/mL and 3910 ng·h/mL"}, {"measurement": "Cmax", "setting": "[2]", "result": "1030 ng/mL and 770 ng/mL and 859 ng/mL and 876 ng/mL and 824 ng/mL"}, {"measurement": "Terminal t1/2", "setting": "[2]", "result": "5.58 h and 4.86 h and 3.71 h and 2.36 h and 2.34 h and 5.52 h"}, {"measurement": "Plasma concentration", "setting": "Table S8, 200 mg/kg PO, 48 h, individual Rat#13-18", "result": "BQL"}, {"measurement": "AUCINF", "setting": "[3]", "result": "6063 ng·h/mL and 6845 ng·h/mL and 7115 ng·h/mL and 6299 ng·h/mL and 10096 ng·h/mL"}, {"measurement": "AUClast", "setting": "[3]", "result": "6055 ng·h/mL and 6836 ng·h/mL and 7107 ng·h/mL and 6076 ng·h/mL and 10087 ng·h/mL"}, {"measurement": "Cmax", "setting": "[3]", "result": "1430 ng/mL and 1360 ng/mL and 1370 ng/mL and 998 ng/mL and 1320 ng/mL"}, {"measurement": "Terminal t1/2", "setting": "[3]", "result": "6.31 h and 5.70 h and 2.52 h and 2.40 h and 8.67 h and 4.91 h"}, {"measurement": "concentration at 0.25 h", "setting": "100 mg/kg, Table S6, 100 mg/kg PO, 0.25 h, mean of Rat#1-6, read-out: Plasma concentration, Mean", "result": 245, "unit": "ng/mL"}, {"measurement": "concentration at 0.5 h", "setting": "100 mg/kg, Table S6, 100 mg/kg PO, 0.5 h, mean of Rat#1-6, read-out: Plasma concentration, Mean", "result": 319, "unit": "ng/mL"}, {"measurement": "concentration at 1 h", "setting": "100 mg/kg, Table S6, 100 mg/kg PO, 1 h, mean of Rat#1-6, read-out: Plasma concentration, Mean", "result": 403, "unit": "ng/mL"}, {"measurement": "concentration at 2 h", "setting": "100 mg/kg, Table S6, 100 mg/kg PO, 2 h, mean of Rat#1-6, read-out: Plasma concentration, Mean", "result": 371, "unit": "ng/mL"}, {"measurement": "concentration at 4 h", "setting": "100 mg/kg, Table S6, 100 mg/kg PO, 4 h, mean of Rat#1-6", "result": 175, "unit": "ng/mL"}, {"measurement": "concentration at 8 h", "setting": "100 mg/kg, Table S6, 100 mg/kg PO, 8 h, mean of Rat#1-6", "result": 57.5, "unit": "ng/mL"}, {"measurement": "concentration at 24 h", "setting": "100 mg/kg, Table S6, 100 mg/kg PO, 24 h, mean of Rat#1-6", "result": 9.15, "unit": "ng/mL"}, {"measurement": "concentration at 48 h", "setting": "100 mg/kg, Table S6, 100 mg/kg PO, 48 h, individual Rat#1-6, read-out: Plasma concentration", "result": 0.984, "unit": "ng/mL"}, {"measurement": "concentration at 48 h", "setting": "100 mg/kg, Table S6, 100 mg/kg PO, 48 h, mean of Rat#1-6, read-out: Plasma concentration, Mean", "result": 1.27, "unit": "ng/mL"}, {"measurement": "concentration at 0.25 h", "setting": "100 mg/kg, Table S7, 100 mg/kg PO, 0.25 h, individual Rat#7-12, read-out: Plasma concentration", "result": 400, "unit": "ng/mL"}, {"measurement": "concentration at 0.25 h", "setting": "100 mg/kg, Table S7, 100 mg/kg PO, 0.25 h, mean of Rat#7-12, read-out: Plasma concentration, Mean", "result": 415, "unit": "ng/mL"}, {"measurement": "concentration at 0.5 h", "setting": "100 mg/kg, Table S7, 100 mg/kg PO, 0.5 h, individual Rat#7-12, read-out: Plasma concentration", "result": 716, "unit": "ng/mL"}, {"measurement": "concentration at 0.5 h", "setting": "100 mg/kg, Table S7, 100 mg/kg PO, 0.5 h, mean of Rat#7-12, read-out: Plasma concentration, Mean", "result": 679, "unit": "ng/mL"}, {"measurement": "concentration at 1 h", "setting": "100 mg/kg, Table S7, 100 mg/kg PO, 1 h, individual Rat#7-12, read-out: Plasma concentration", "result": 830, "unit": "ng/mL"}, {"measurement": "concentration at 1 h", "setting": "100 mg/kg, Table S7, 100 mg/kg PO, 1 h, mean of Rat#7-12, read-out: Plasma concentration, Mean", "result": 870, "unit": "ng/mL"}, {"measurement": "concentration at 2 h", "setting": "100 mg/kg, Table S7, 100 mg/kg PO, 2 h, individual Rat#7-12, read-out: Plasma concentration", "result": 519, "unit": "ng/mL"}, {"measurement": "concentration at 2 h", "setting": "100 mg/kg, Table S7, 100 mg/kg PO, 2 h, mean of Rat#7-12, read-out: Plasma concentration, Mean", "result": 602, "unit": "ng/mL"}, {"measurement": "concentration at 4 h", "setting": "100 mg/kg, Table S7, 100 mg/kg PO, 4 h, mean of Rat#7-12", "result": 384, "unit": "ng/mL"}, {"measurement": "concentration at 8 h", "setting": "100 mg/kg, Table S7, 100 mg/kg PO, 8 h, mean of Rat#7-12", "result": 109, "unit": "ng/mL"}, {"measurement": "concentration at 24 h", "setting": "100 mg/kg, Table S7, 100 mg/kg PO, 24 h, mean of Rat#7-12", "result": 8, "unit": "ng/mL"}, {"measurement": "concentration at 48 h", "setting": "100 mg/kg, Table S7, 100 mg/kg PO, 48 h, mean of Rat#7-12, read-out: Plasma concentration, Mean", "result": 1.79, "unit": "ng/mL"}, {"measurement": "concentration at 0.25 h", "setting": "200 mg/kg, Table S8, 200 mg/kg PO, 0.25 h, individual Rat#13-18, read-out: Plasma concentration", "result": 489, "unit": "ng/mL"}, {"measurement": "concentration at 0.25 h", "setting": "200 mg/kg, Table S8, 200 mg/kg PO, 0.25 h, mean of Rat#13-18, read-out: Plasma concentration, Mean", "result": 425, "unit": "ng/mL"}, {"measurement": "concentration at 0.5 h", "setting": "200 mg/kg, Table S8, 200 mg/kg PO, 0.5 h, individual Rat#13-18, read-out: Plasma concentration", "result": 858, "unit": "ng/mL"}, {"measurement": "concentration at 0.5 h", "setting": "200 mg/kg, Table S8, 200 mg/kg PO, 0.5 h, mean of Rat#13-18, read-out: Plasma concentration, Mean", "result": 892, "unit": "ng/mL"}, {"measurement": "concentration at 1 h", "setting": "200 mg/kg, Table S8, 200 mg/kg PO, 1 h, individual Rat#13-18, read-out: Plasma concentration", "result": 984, "unit": "ng/mL"}, {"measurement": "concentration at 1 h", "setting": "200 mg/kg, Table S8, 200 mg/kg PO, 1 h, mean of Rat#13-18, read-out: Plasma concentration, Mean", "result": 1220, "unit": "ng/mL"}]}]}
